Read-outs that look alike come from different tables or passages of the source.
Experiments:
DNA-PK = target: T1, DNA-PK (Homo sapiens, UniProt P78527); test: DNA-PK Assay for Biochemical Enzymatic Inhibition (ADP Glo Kinase assay); details: DNA-PK enzyme
T1 construct: purchased Invitrogen PR9107A
Outline: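 Human DNA-PK (25 ng) preincubated 15 min with compounds (ten three-fold dilutions) in HEPES pH 7.5, MgCl2, KCl, calf thymus DNA buffer, then substrate 434.4 μM and ATP 64.4 μM (final) for 60 min at room temperature. ADP-Glo luminescence; percent inhibition fitted by four-parameter regression for IC50.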

[1] = Microsomal Stability Assay, mouse liver microsomes; assay type: in vitro ADME; details: for microsomal CLint at 0.1 uM: male, CD-1, pH 7.4
Experimental: (§1) Samples were then mixed and centrifuged. Supernatants were used for HPLC-MS/MS analysis. […] Peak areas corresponding to the test compound were recorded.

[2] = Microsomal Stability Assay, human liver microsomes; assay type: in vitro ADME; details: for microsomal CLint at 0.1 uM: both sexes, pH 7.4
Experimental: as §1

[3] = target: T2, DNA-PK phosphorylation at Serine 2056 (Homo sapiens, UniProt P78527); test: Cellular Assay for Inhibition of DNA-PK Phosphorylation at Serine 2056 in FaDu cells (sandwich ELISA, neocarzinostatin); assay type: cell-based; details: pSer2056 DNA-PK
T2 construct: FaDu cells were purchased from ATCC; host or cells: FaDu
Outline: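 pSer2056 and total DNA-PK were measured by sandwich ELISA in BCA-normalised FaDu lysates. Cells had 1 h compound exposure (0.3% DMSO), then 2 h with 1 μg/mL final neocarzinostatin. IC50 was fitted (variable slope) to % inhibition scaled against NCS-stimulated and DMSO-only controls.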

[4] = test system: pDNA-PK induction in HCT116 tumour spheroids; test: Multicellular tumour spheroid + radiation, pDNA-PK (ser2056) inhibition, immunohistochemical endpoint, HCT116; assay type: cell-based; details: Homo sapiens, 20 Gy, 20% O2
Outline: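 HCT116 spheroids (~0.5 mm) in MEM/10% FBS, 20% O2, 37° C., pre-incubated 1 h with compound (10 or 5 μM down to 3.5 nM), irradiated 20 Gy, then 2 h further with compound. Cryosections immunostained for pDNA-PK ser2056; EC50 is concentration halving radiation-induced pDNA-PK.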

[5] = Hepatocyte Stability Assay, human hepatocytes; assay type: in vitro ADME
Experimental: (§2) Cryopreserved mouse hepatocytes were obtained from a pool of 10 or more male CD-1 mice. Cryopreserved human hepatocytes were obtained from a pool of 10 or more donors of mixed gender. Final hepatocyte density was 0.7 million viable cells per mL and test compound concentration was 1 uM with a maximum of 0.01% DMSO. Cryopreserved hepatocytes were thawed, washed, and resuspended in Krebs-Heinslet buffer (pH 7.3). The reaction was initiated by adding the test compound into cell suspension and incubated for 0, […], 1, 1.5, and 2 h, respectively, at 37° C./5% C02. The reaction was stopped by adding acetonitrile into the incubation mixture. Samples were then mixed, transferred completely to another 96-well plate, and centrifuged. Supernatants were used for HPLC-MS/MS analysis. […] Peak areas corresponding to the test compound were recorded.

[6] = Hepatocyte Stability Assay, mouse hepatocytes; assay type: in vitro ADME
Experimental: as §2

[7] = mouse liver microsomes 0.1 mg/mL, 0.1 uM compound
[8] = human liver microsomes 0.1 mg/mL, 0.1 uM compound
[9] = neocarzinostatin 1 μg/mL, Table 1
[10] = HCT-116, 2 hours following radiation, Example 9 Study 2, read-out: Spheroid Cell line: HCT116 Immunohistochemical endpoint pDNA-PK inhibition EC50
[11] = HCT-116, Spheroid, Cell Line: HCT115 (so in the source), 2 hours following radiation, Example 7, read-out: EC50, Immunohistochemical endpoint, pDNA-PK inhibition
[12] = HCT-116, 2 h, spheroids, Example 8, read-out: Cell line: HCT116 Immunohistochemical endpoint pDNA-PK inhibition EC50
[13] = mouse liver microsomes, Example 11
[14] = human liver microsomes, Example 11

| SMILES | IC50 (DNA-PK; Table 1) [µM] | microsomal CLint at 0.1 uM [1, 7] [µL/min/mg] | Microsomal Stability Mouse % rem. 60 min ([1]; mouse liver microsomes) | microsomal CLint at 0.1 uM [2, 8] [µL/min/mg] | Microsomal Stability Human % rem. 60 min ([2]; human liver microsomes) | IC50 [3, 9] [µM] | EC50 [4, 10] [µM] | EC50 [4, 11] [µM] | further results |
| --- | --- | --- | --- | --- | --- | --- | --- | --- | --- |
| CN(C)C(=O)COc1ccc(N[C@H]2CC[C@@H](Oc3nc(N4CCOCC4)cc4ncccc34)CC2)nc1 [Compound 55, N,N-dimethyl-2-((6-(((1s,4s)-4-((7-morpholino-1,6-naphthyridin-5-yl)oxy)cyclohexyl)amino)pyridin-3-yl)oxy)acetamide] | < 0.0005 | > 116 | E (% remaining = 0-25%) | > 116 | F (% remaining = 25-50%) | 0.1 to 1 |  |  |  |
| CN(C)C(=O)COc1ccnc(N[C@H]2CC[C@@H](Oc3nc(N4CCOCC4)cc4ncccc34)CC2)n1 [Compound 56, N,N-dimethyl-2-((2-(((1s,4s)-4-((7-morpholino-1,6-naphthyridin-5-yl)oxy)cyclohexyl)amino)pyrimidin-4-yl)oxy)acetamide] | < 0.0005 | > 116 | E (% remaining = 0-25%) | > 116 | E (% remaining = 0-25%) | 0.1 to 1 | 0.5 to 1 | 0.5 to 1 |  |
| CS(=O)(=O)NCCOc1cnc(N[C@H]2CC[C@@H](Oc3nc(N4CCOCC4)cc4ncccc34)CC2)nc1 [Compound 67] | < 0.0005 | < 116 | G (% remaining = 50-75%) | > 116 | E (% remaining = 0-25%) | < 0.1 | 0.01 to 0.5 | 0.5 to 1 |  |
| c1cnc2cc(N3CCOCC3)nc(O[C@H]3CC[C@@H](Nc4ncc(OCCN5CCNCC5)cn4)CC3)c2c1 [Compound 70, N-((1s,4s)-4-((7-Morpholino-1,6-naphthyridin-5-yl)oxy)cyclohexyl)-5-(2-(piperazin-1-yl)ethoxy)pyrimidin-2-amine] | < 0.0005 | > 116 | F (% remaining = 25-50%) | > 116 | F (% remaining = 25-50%) | < 0.1 | 1 to 10 | 1 to 10 |  |
| O=C(COc1cnc(N[C@H]2CC[C@@H](Oc3nc(N4CCOCC4)cc4ncccc34)CC2)nc1)N1CC(F)C1 [Compound 76, 1-(3-Fluoroazetidin-1-yl)-2-((2-(((1s,4s)-4-((7-morpholino-1,6-naphthyridin-5-yl)oxy)cyclohexyl)amino)pyrimidin-5-yl)oxy)ethan-1-one] | < 0.0005 |  |  |  |  | 0.1 to 1 | 1 to 10 |  | hepatocyte CLint at 1 uM ([5]; both sexes, cryopreserved hepatocytes, pH 7.3, human hepatocytes 0.7 million cells per mL, 1 uM compound): < 8.2 µL/min/1e6 cells; Hepatocyte Stability Human % rem. 120 min ([5]; human hepatocytes, 120 min): G (% remaining = 50-75%); hepatocyte CLint at 1 uM ([6]; male, CD-1, cryopreserved hepatocytes, pH 7.3, mouse hepatocytes 0.7 million cells per mL, 1 uM compound): > 8.2 µL/min/1e6 cells; Hepatocyte Stability Mouse % rem. 120 min ([6]; mouse hepatocytes, 120 min): F (% remaining = 25-50%) |
| CN(C)C(=O)COc1cnc(C(=O)N[C@H]2CC[C@@H](Oc3nc(N4CCOCC4)cc4ncccc34)CC2)nc1 [Compound 125] | 0.0005 to 0.001 | < 116 | H (% remaining = 75-100%) | < 116 | H (% remaining = 75-100%) | 0.1 to 1 | 1 to 10 | 1 to 10 |  |
| O=C(Nc1ccccc1)N[C@H]1CC[C@@H](Oc2nc(N3CCOCC3)cc3ncccc23)CC1 [Compound 150, 1-((1s,4s)-4-((7-Morpholino-1,6-naphthyridin-5-yl)oxy)cyclohexyl)-3-phenylurea] | 0.0005 to 0.001 | > 116 | E (% remaining = 0-25%) |  |  | 0.1 to 1 | 0.5 to 1 | 0.5 to 1 | EC50 [4, 12]: 0.5 to 1 µM |
| NC(=O)c1cnc2cc(N3CCOCC3)nc(O[C@H]3CC[C@@H](n4ccnc4)CC3)c2c1 [Compound 166, 5-(((1s,4s)-4-(1H-imidazol-1-yl)cyclohexyl)oxy)-7-morpholino-1,6-naphthyridine-3-carboxamide] | 0.001 to 0.01 | > 116 | E (% remaining = 0-25%) |  |  | 10 to 30 | 10 to 100 | 10 to 100 | EC50 [4, 12]: 10 to 100 µM |
| CC(=O)NC(=O)c1cnc2cc(N3CCOCC3)nc(O[C@H]3CC[C@@H](n4ccnc4)CC3)c2c1 [Compound 167, 5-(((1s,4s)-4-(1H-imidazol-1-yl)cyclohexyl)oxy)-N-acetyl-7-morpholino-1,6-naphthyridine-3-carboxamide] | 0.001 to 0.01 | > 116 | E (% remaining = 0-25%) |  |  | 0.1 to 1 | 10 to 100 | 10 to 100 | EC50 [4, 12]: 10 to 100 µM |
| CONC(=O)c1cnc2cc(N3CCOCC3)nc(O[C@H]3CC[C@@H](n4ccnc4)CC3)c2c1 [Compound 171, 5-(((1s,4s)-4-(1H-imidazol-1-yl)cyclohexyl)oxy)-N-methoxy-7-morpholino-1,6-naphthyridine-3-carboxamide] | 0.001 to 0.01 | < 116 | G (% remaining = 50-75%) |  |  | 1 to 10 | 1 to 10 | 1 to 10 | EC50 [4, 12]: 1 to 10 µM |
| O=S(=O)(Nc1cnc2cc(N3CCOCC3)nc(O[C@H]3CC[C@@H](Nc4ncccn4)CC3)c2c1)C1CC1 [Compound 186, N-(7-morpholino-5-(((1s,4s)-4-(pyrimidin-2-ylamino)cyclohexyl)oxy)-1,6-naphthyridin-3-yl)cyclopropanesulfonamide] | 0.0005 to 0.001 | < 116 | G (% remaining = 50-75%) | > 116 | F (% remaining = 25-50%) | < 0.1 | 1 to 10 | 1 to 10 |  |
| CN(C)C(=O)COc1cnc(N[C@H]2CC[C@@H](Oc3nc(N4CCOCC4)cc4ncc(NS(C)(=O)=O)cc34)CC2)nc1 [LFA012, 2-[2-[[4-[[3-(Methanesulfonamido)-7-morpholino-1,6-naphthyridin-5-yl]oxy]cyclohexyl]amino]pyrimidin-5-yl]oxy-N,N′-dimethyl-acetamide] |  |  |  |  |  |  |  |  | IC50 (DNA-PK; Table 2): < 0.0005 µM; Microsomal Stability Mouse % rem. 60 min [1, 13]: H (% remaining = 75-100%); Microsomal Stability Mouse Clint [1, 13]: A (Clint < 116 uL/min/mg); Microsomal Stability Human % rem. 60 min [2, 14]: H (% remaining = 75-100%); Microsomal Stability Human Clint [2, 14]: A (Clint < 116 uL/min/mg); IC50 ([3]; Table 2): 0.1 to 1 µM |
| CN(C)C(=O)COc1cnc(N[C@H]2CC[C@@H](Oc3nc(N4CCOCC4)cc4ncc(N)cc34)CC2)nc1 [LFA111, 2-[2-[[4-[(3-Amino-7-morpholino-1,6-naphthyridin-5-yl)oxy]cyclohexyl]amino]pyrimidin-5-yl]oxy-N,N-dimethyl-acetamide] |  |  |  |  |  |  |  |  | IC50 (DNA-PK; Table 2): 0.0005 to 0.001 µM; microsomal CLint at 0.1 uM [1, 13]: < 116 µL/min/mg; Microsomal Stability Mouse % rem. 60 min [1, 13]: F (% remaining = 25-50%); microsomal CLint at 0.1 uM [2, 14]: < 116 µL/min/mg; Microsomal Stability Human % rem. 60 min [2, 14]: G (% remaining = 50-75%); IC50 ([3]; Table 2): 0.1 to 1 µM |
| CN(C)C(=O)COc1cnc(N[C@H]2CC[C@@H](Oc3nc(N4CCOCC4)cc4ncc(O)cc34)CC2)nc1 [LFA113, 2-[2-[[4-[(3-Hydroxy-7-morpholino-1,6-naphthyridin-5-yl)oxy]cyclohexyl]amino]pyrimidin-5-yl]oxy-N,N-dimethyl-acetamide] |  |  |  |  |  |  |  |  | IC50 (DNA-PK; Table 2): < 0.0005 µM; microsomal CLint at 0.1 uM [1, 13]: < 116 µL/min/mg; Microsomal Stability Mouse % rem. 60 min [1, 13]: F (% remaining = 25-50%); microsomal CLint at 0.1 uM [2, 14]: < 116 µL/min/mg; Microsomal Stability Human % rem. 60 min [2, 14]: H (% remaining = 75-100%); IC50 ([3]; Table 2): < 0.1 µM |
